Here are results for 17 molecules from ChEMBL document CHEMBL1201862, “PubChem BioAssay data set” (2004).

Molecules are shown by their SMILES.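 Results reflect a 48-hour exposure of cells in 96-well plates to compound at five concentrations. GI50 = concentration required for 50% inhibition of growth.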 Activity calls are given as the source filed them. Cut-off read from the data, not from the text of the source: active = GI50 up to about 1.1 µM and inactive = higher.

Some test systems named below: DLD-1; M19-MEL; HOP-18; XF498; DMS-273; LXFL 529; RXF 631; KM-20L2; DMS-114.
What all share (assay): NCI anticancer screen, dose series, 48 h

As for `CC1CCCc2c(CC3CC(=O)NC(=O)C3)n[nH]c21` (stereo not drawn), the GI50 with DLD-1, in the experiment on M19-MEL, in the experiment with HOP-18, with XF498, with DMS-273 and in the experiment with LXFL 529 was > 100 µM (inactive) throughout. Further, the GI50 in the experiment with RXF 631, in the experiment on KM-20L2 and with DMS-114 was > 100 µM (inactive) each time.
`CC(C)(C)c1cc(C2c3cc4c(cc3OC(O)(CO)C2C(=O)O)OCO4)cc(C(C)(C)C)c1O.CC(C)(C)c1cc(C2c3cc4c(cc3OC3(O)COC(=O)C23)OCO4)cc(C(C)(C)C)c1O` (stereo not drawn): the GI50 with DLD-1 is 11.7 µM (inactive); in the experiment with M19-MEL, 13.8 µM (inactive); with HOP-18, 7.78 µM (inactive); in the experiment on DMS-273, 14 µM (inactive); with RXF 631 it was 13.1 µM (inactive); in the experiment with KM-20L2, 17 µM (inactive). Besides, in the experiment with DMS-114, the GI50 is 8.34 µM (inactive).
On to `Cc1ccccc1NC(=O)c1ccc([N+](=O)[O-])cc1`, for which the GI50 with DLD-1 was > 100 µM (inactive); in the experiment on M19-MEL it was > 100 µM (inactive); in the experiment on HOP-18 it was > 100 µM (inactive); in the experiment with XF498 it was > 100 µM (inactive); in the experiment on DMS-273, 80.5 µM (inactive); with LXFL 529, > 100 µM (inactive). The GI50 is > 100 µM (inactive) with KM-20L2 and 74 µM (inactive) with DMS-114.
In the case of `COc1cc(Nc2nc3cc(C(F)(F)F)ccc3nc2C)cc(OC)c1OC`, the GI50 with DLD-1 was 7.1 µM (inactive); in the experiment with HOP-18, < 0.01 µM (active); in the experiment with XF498 it was 2.3 µM (inactive); with DMS-273, 5.2 µM (inactive); in the experiment on LXFL 529, 9.91 µM (inactive); in the experiment with DMS-114, 11.2 µM (inactive).
For `CCCCCNC(=O)CCCCCCCCCCCNC(=O)CCCCCCCCCCN1C=CC(=CC=C2C=CC(=O)C=C2)C=C1`, the GI50 is > 100 µM (inactive) with DLD-1; 34.4 µM (inactive) in the experiment with M19-MEL; 10.3 µM (inactive) with XF498; 23.8 µM (inactive) in the experiment with DMS-273; 5.86 µM (inactive) in the experiment with LXFL 529; > 100 µM (inactive) in the experiment on RXF 631. The values for the GI50 in the experiment with KM-20L2 and with DMS-114 were > 100 µM (inactive) and 12.6 µM (inactive), respectively.
For `CC[C@@]1(OC(=O)C(N)CCC(=O)O)C(=O)OCc2c1cc1n(c2=O)Cc2cc3ccccc3nc2-1` (stereo partly drawn), the GI50 in the experiment on DLD-1 was 1.48 µM (inactive); in the experiment with M19-MEL, 0.189 µM (active); in the experiment on HOP-18, 0.217 µM (active); with XF498 it was 0.197 µM (active); in the experiment on DMS-273, 0.0183 µM (active); in the experiment on LXFL 529, 1.38 µM (inactive). The GI50 is 0.474 µM (active) with KM-20L2 and 0.0493 µM (active) in the experiment with DMS-114.
`C/C(=N\NC(N)=S)c1cc(C)c(C)cc1C`: the GI50 with DLD-1 is 53.3 µM (inactive); in the experiment on M19-MEL it was 25.9 µM (inactive); in the experiment on HOP-18, 62.8 µM (inactive); in the experiment with XF498 it was 23 µM (inactive); with DMS-273, 19.3 µM (inactive); in the experiment on LXFL 529 it was 27.7 µM (inactive). For the same molecule, the GI50 in the experiment on RXF 631 is 57.7 µM (inactive); in the experiment with KM-20L2 it was 35.6 µM (inactive); with DMS-114 it was 21 µM (inactive).
With `O=C(NC1C(=O)NNC1c1ccccc1Cl)c1ccccc1` (stereo not drawn), the GI50 with DLD-1, with M19-MEL, with HOP-18, in the experiment on XF498, in the experiment on DMS-273 and in the experiment on LXFL 529 was > 100 µM (inactive) each time. The GI50 in the experiment on KM-20L2 and in the experiment with DMS-114 was > 100 µM (inactive) each time.
For `COC(=O)C1=CC2C(=O)OC1CC2C#N` (stereo not drawn), the GI50 in the experiment with DLD-1, in the experiment on HOP-18, in the experiment with XF498, in the experiment with DMS-273, with LXFL 529 and in the experiment with KM-20L2 was > 100 µM (inactive) each time. Further, the GI50 in the experiment with DMS-114 is > 100 µM (inactive).
As for `COc1cc(-c2ccccc2)c(OC)cc1CCl`, the GI50 in the experiment with DLD-1, in the experiment on M19-MEL, in the experiment on HOP-18, with XF498, in the experiment on DMS-273 and in the experiment with RXF 631 was > 100 µM (inactive) in each case. Further, the GI50 in the experiment on KM-20L2 and with DMS-114 was > 100 µM (inactive) in each case.
For `OC(CC1SCCCS1)c1ccccc1` (stereo not drawn), the GI50 in the experiment with DLD-1, in the experiment on M19-MEL, in the experiment on HOP-18, with XF498, with DMS-273 and with LXFL 529 was > 100 µM (inactive) each time. Moreover, the GI50 in the experiment on KM-20L2 and in the experiment with DMS-114 was > 100 µM (inactive) each time.
`O=c1c2ccccc2c(=O)c2c1c1[nH]c3ccccc3c1c1c(=O)c3ccccc3c(=O)c21`: the GI50 in the experiment with DLD-1, with M19-MEL, in the experiment with HOP-18, with XF498, in the experiment on DMS-273 and in the experiment on RXF 631 was > 100 µM (inactive) in each case. The GI50 with KM-20L2 and in the experiment with DMS-114 was > 100 µM (inactive) throughout.
For the molecule `[N-]=[N+]=NC1(Cc2ccccc2)C(=O)Nc2ccccc2C1=O` (stereo not drawn), the GI50 with DLD-1, in the experiment with M19-MEL, in the experiment with HOP-18, with XF498, with DMS-273 and with LXFL 529 was > 100 µM (inactive) throughout. Further, the GI50 in the experiment with KM-20L2 and with DMS-114 was > 100 µM (inactive) each time.
Regarding `C=C1C2CC(OC(C)=O)C3(C)C(c4ccoc4)OC(=O)[C@@H](O)[C@]13OC1C[C@H](OC(C)=O)C(C)(C)[C@H](CC(=O)OC)[C@]12C` (stereo partly drawn), the GI50 with M19-MEL, in the experiment with HOP-18, in the experiment with DMS-273, in the experiment on LXFL 529, with RXF 631 and with KM-20L2 was > 100 µM (inactive) each time. Further, the GI50 in the experiment with DMS-114 was > 100 µM (inactive).
Turning to `N#C/C(=C\c1ccc(O)c(O)c1)C(N)=O`, the GI50 in the experiment on DLD-1 is 48.2 µM (inactive); in the experiment on M19-MEL it was 78.7 µM (inactive); in the experiment with DMS-273 it was 57.7 µM (inactive); in the experiment with LXFL 529, 40.7 µM (inactive); with RXF 631, 56 µM (inactive); in the experiment with KM-20L2, 50.4 µM (inactive). Moreover, the GI50 with DMS-114 was 22.7 µM (inactive).
`COc1cc(CCc2ccc(N)cc2)cc(OC)c1OC`: the GI50 with DLD-1 is > 100 µM (inactive); in the experiment with M19-MEL, 55.8 µM (inactive); in the experiment with HOP-18, > 71 µM (inactive); with XF498 it was 64.6 µM (inactive); in the experiment on DMS-273, 37.9 µM (inactive); with LXFL 529, 59 µM (inactive). Besides, the values for the GI50 with RXF 631, with KM-20L2 and in the experiment with DMS-114 were > 58.1 µM (inactive), 44.2 µM (inactive) and 34.3 µM (inactive), respectively.
For `C#C[C@]1(O)CC[C@H]2[C@@H]3CCc4cc(O)ccc4[C@H]3CC[C@@]21C` [ETHINYL ESTRADIOL], the GI50 in the experiment with DLD-1 is 12.6 µM (inactive); with M19-MEL it was 17.1 µM (inactive); in the experiment on HOP-18, > 100 µM (inactive); in the experiment with XF498, 28.7 µM (inactive); in the experiment on DMS-273, > 10 µM (inactive); in the experiment with LXFL 529, 21.5 µM (inactive). For the same molecule, the GI50 was 16.7 µM (inactive) in the experiment with KM-20L2 and 16.3 µM (inactive) in the experiment on DMS-114.
